The values below come from patent US5877019A, “Animal 2-5A-dependent RNases and encoding sequences therefor” (Cleveland Clinic Foundation, priority 1996, dated 1999).

Test [1] has as its system human 2-5A-dependent RNase. Conditions: purified enzyme, poly(rU) substrate; for concentration giving maximal activation of 2-5A-dependent RNase: 30 minutes 30° C.
Protocol: Assays were with 50 ng of superose 12 purified fractions of the 2-5A-dependent RNase at 30° C. for 30 minutes using 12 nM poly(rU)-^32 P[Cp] as substrate.
To determine the structural requirement of 2-5A required for activation of 2-5A-dependent RNase, ribonuclease activity against poly(rU) was determined as a function of oligonucleotide concentration. The purified 2-5A-dependent RNase was used in these assays.
(§3) RNA and DNA molecules used were poly(rU), poly(A), poly(G), poly(C), or poly(dT) from Pharmacia and were labeled at their 3'-termini with ^32 P-pCp (3,000 Ci per mmole) and T4 RNA ligase as described previously (Silverman, R. H., Anal. Biochem. 144, 450-460 1985). Fractions containing 2-5A-dependent RNase were incubated in the presence or absence of 100 nM of p3 (A2'p)3 A (or other oligonucleotides), 8 to 16 nM of ^32 P-labeled RNA in final volumes of 25 μls at 30° C. The trichloracetic acid-insoluble fraction of RNA was then determined by filtering on glass-fiber filters in the presence of carrier yeast tRNA as described previously (Silverman, R. H., Anal. Biochem. 144, 450-460 1985).
Test [2] deals with murine 2-5A-dependent RNase. In words: UV covalent crosslinking of 32P-2-5A probe in presence of unlabeled oligonucleotide competitors. Type of test: binding. Conditions: for competition with binding of the 2-5A probe: competitor 100 nM, recombinant 74 kDa protein (clone ZB1) in wheat germ extract, similar profile for L929 cell enzyme; for concentration of competitor that prevents 2-5A probe binding: probe 2.4 nM, both truncated recombinant (ZB1) and naturally occurring L cell protein. The method, then: FIG. 2A is a specific affinity of truncated murine 2-5A-dependent RNase for 2-5A. UV covalent crosslinking of the ^32 P-2-5A probe (lanes 1-7) to protein is performed after translation reactions in wheat germ extract (5 μl) with murine 2-5A-dependent RNase mRNA (from clone ZB1) (lanes 1-3) or without added RNA (lane 4) or in extract of interferon treated mouse L cells (100 μg of protein) (lanes 5-7). Reactions are without added competitor (lanes 1, 4, and 5) or in the presence of either trimer core. […] Lanes 8 and 9 are produced by incubating the wheat germ extract with ^35 S-methionine in the absence or presence of 2-5A-dependent RNase mRNA, respectively.
Autoradiograms of the dried SDS/10% polyacrylamide gels are shown. Concentrations of the oligonucleotide competitors are indicated. I is inosine.
The synthesis of the 2-5A probe, p(A2'p)2 (br^8 A2'p)2 A[32P]Cp, and its crosslinking to 2-5A-dependent RNase is performed exactly as described. See Nolan-Sorden, N. L. et al., Anal. Biochem., 184:298-304 (1990). Briefly, the 2-5A probe, about 0.7 to 2.5 nM at […], is incubated for about one hour on ice with cell extract prepared as described, Silverman, R. H. and Krause, D., I.R.L. Press, Oxford. England, pp. 149-193 (1987), in the absence or presence of unlabeled oligonucleotide competitors. Covalent crosslinking is done under a uv lamp (308 nm) for one hour on ice and the proteins are separated on SDS/10% polyacrylamide gels. Filter assays for 2-5A binding activity using the 2-5A probe for about one hour on ice, as described in Knight, M. et al., Nature, 288:189-192 (1980).

For test [3], the system named is human 2-5A-dependent RNase. In words: UV covalent crosslinking of 2-5A probe in presence of competitors. Conditions: competitor 100 nM; recombinant human enzyme in wheat germ extract; same pattern in HeLa cell extract. It is filed as binding. The method, then:
FIG. 5A is specific affinity of recombinant human 2-5A-dependent RNase for 2-5A. Crosslinking of the 2-5A probe (lanes 1-7) to protein is performed after translation reactions in wheat germ extract (5 μl) with human 2-5A-dependent RNase mRNA (lanes 1-3) or without added RNA (lane 4) or in extract of human interferon α treated (1000 units per ml for 16 h) human HeLa cells (350 μg of protein) (lanes 5-7). […] Incubations with ^35 S-methionine are shown in lanes 8 to 12. Lane 8 is with wheat germ extract and human 2-5A-dependent RNase mRNA. Reticulocyte lysate preadsorbed to 2-5A-cellulose is incubated with human 2-5A-dependent RNase mRNA in the absence (lane 9) or presence (lane 10) of cycloheximide, or in the absence of added mRNA (lane 11). […] The positions and relative molecular masses (in kDa) of the marker proteins are indicated.
The synthesis of the 2-5A probe, p(A2'p)2 (br^8 A2'p)2 A[32P]Cp, and its crosslinking to 2-5A-dependent RNase is performed exactly as described. See Nolan-Sorden, N. L. et al., Anal. Biochem., 184:298-304 (1990). Briefly, the 2-5A probe, about 0.7 to 2.5 nM at […], is incubated for about one hour on ice with cell extract prepared as described, Silverman, R. H. and Krause, D., I.R.L. Press, Oxford. England, pp. 149-193 (1987), in the absence or presence of unlabeled oligonucleotide competitors. […]

Test [4] relates to human recombinant 2-5A-dependent RNase. In words: 2-5A-dependent ribonuclease assay, crude extract of recombinant baculovirus-infected insect cells, poly(rU) degradation. Conditions: activator at 100 nM, thirty minutes.
Protocol: Crude cell extracts, containing 2 μg of protein, were incubated with 12 nM poly(rU)-^32 p[Cp] for 30 minutes at 30° C. in the presence of absence of 100 nM of tetramer 2-5A. RNA degradation was determined by measuring acid-insoluble fraction of RNA as described (Silverman, R. H. Anal. Biochem., 144:450-460 1985).
To measure the catalytic activity of the recombinant enzyme, ribonuclease assay was performed in the presence and absence of trimer 2-5A, p3 (A2'p)2 A. The degradation of radiolabeled poly(rU) to acid-soluble fragments was measured in this assay (Silverman, R. H., Anal. Biochem. 144,450-460 1985).
as §3
Test [5] deals with T1, 2-5A-dependent RNase (Homo sapiens, UniProt Q05823).
T1 sequence (Q05823 1-741): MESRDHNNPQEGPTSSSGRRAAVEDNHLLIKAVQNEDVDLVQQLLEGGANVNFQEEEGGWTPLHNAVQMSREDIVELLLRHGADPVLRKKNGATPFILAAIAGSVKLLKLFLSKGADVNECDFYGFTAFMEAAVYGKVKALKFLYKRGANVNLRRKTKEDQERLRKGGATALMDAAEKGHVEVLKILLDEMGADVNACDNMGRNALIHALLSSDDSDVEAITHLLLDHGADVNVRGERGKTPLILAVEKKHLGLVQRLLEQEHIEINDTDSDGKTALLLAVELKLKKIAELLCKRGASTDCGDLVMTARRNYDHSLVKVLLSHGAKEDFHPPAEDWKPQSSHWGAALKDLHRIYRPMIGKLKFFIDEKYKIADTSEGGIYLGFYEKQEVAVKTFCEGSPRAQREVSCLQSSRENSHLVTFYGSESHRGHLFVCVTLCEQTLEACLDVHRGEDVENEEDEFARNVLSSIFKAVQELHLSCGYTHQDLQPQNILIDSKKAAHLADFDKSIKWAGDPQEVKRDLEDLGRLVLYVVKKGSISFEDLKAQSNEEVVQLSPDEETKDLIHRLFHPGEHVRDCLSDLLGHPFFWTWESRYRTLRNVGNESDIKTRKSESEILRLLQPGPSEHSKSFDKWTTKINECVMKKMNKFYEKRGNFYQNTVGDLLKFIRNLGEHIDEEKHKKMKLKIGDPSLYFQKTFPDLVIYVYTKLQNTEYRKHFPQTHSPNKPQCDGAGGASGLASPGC
In words: Divalent cation and ATP effects on 2-5A-dependent RNase activity of dialyzed enzyme. Type of test: biochemical. The settings on record: EDTA/EGTA buffer. The method, then:
(§1) The divalent cation requirements of 2-5A-dependent RNase were determined after extensive dialysis against buffer containing both EDTA and EGTA. More particularly, purified 2-5A-dependent RNase (about 100 μg in 100 μl), post-mono Q column fraction, was dialyzed at 4° C. against 25 mM Tris-HCl (pH 7.4), 2.5 mM EDTA, 2.5 mM EGTA, 14 mM 2-mercaptoethanol, and 100 mM KCl (first against 400 ml for four hours, then against 600 ml for ten hours, and finally against 200 ml of reaction buffer (EDTA and EGTA were reduced to 0.5 mM) for another four hours.
(§2) Activity assays were also performed in the presence of EDTA/EGTA to ensure the chelation of metal ions present in the reagents. […] For the filter binding assay, a ^32 P-labeled and bromine substituted 2-5A analog, p(A2'p)2 (br^8 A2'p)2 A3'-32P]Cp, 10,000 counts per minute per assay, at about 3,000 Ci per mmole, was incubated with fractions containing 2-5A-dependent RNase (or controls) at 4° C. for one hour.

Test [6] concerns the target T1, 2-5A-dependent RNase. In words: Divalent cation and ATP effects on 2-5A binding activity of dialyzed enzyme. Conditions: EDTA/EGTA buffer. The method, then: as §1, §2
In test [7] the test system is 2-5A probe. Kind of test: 2-5A binding activity of nested 3'-deletion clones (filter binding and uv crosslinking). Conditions: protein expressed in wheat germ extract. An excerpt:
See Example and Knight et al. (1980). The positions of the P-loop motifs and the lengths of the translation products are indicated. Clone ZB1 encodes for amino acids designated as 1-656 in Table II, except for the last 5 amino acid residues which are Lys, Pro, Leu, Ser, and Gly. Clone ZB2 encodes for amino acids designated as 1-619 in Table II. Clone ZB3 encodes for amino acids designated as 1-515 in Table II. Clone ZB5 encodes for amino acids designated as 1-474 in Table II. Clone ZB9 encodes for amino acids designated as 1-403 in Table II. Clone ZB10 encodes for amino acids designated as 1-365 in Table II. Clone ZB13 encodes for amino acids designated as 1-294 in Table II. Clone ZB14 encodes for amino acids designated as 1-265 in Table II. Clone ZB15 encodes for amino acids designated as 1-218 in Table II.
To further define sequences involved in 2-5A binding, nested 3'-deletions of the murine 2-5A-dependent RNase cDNA, clone ZB1, are constructed, transcribed in vitro, and expressed in a wheat germ extract. […] The levels of 2-5A binding activity are determined with the 2-5A probe in both a filter binding assay, Knight, M. et al., Nature, 288:189-192 (1980), and the uv crosslinking assay, Nolan-Sorden, N. L. et al., Anal. Biochem., 184:298-304 (1990), with similar results. Expression of clone ZB11, encoding amino acid residues 1 to 342, results in a loss of only about 26% of the 2-5A binding activity as compared to clone ZB1 (amino acids 1 to 656). Clones intermediate in length between ZB1 and ZB11 all result in significant levels of 2-5A binding activity. […] See also Saraste, M. et al., TIBS, 14:430-434 (1990).
The set of nested 3'-deletions of the truncated murine 2-5A-dependent RNase cDNA, ZB1, is generated with exonuclease III/S1 nuclease digestion followed by filling-in with Klenow DNA Polymerase using the "Erase-A-Base"system (Promega).
The synthesis of the 2-5A probe, p(A2'p)2 (br^8 A2'p)2 A[32P]Cp, and its crosslinking to 2-5A-dependent RNase is performed exactly as described. See Nolan-Sorden, N. L. et al., Anal. Biochem., 184:298-304 (1990). […]

“Also recorded” adds a separate entry of the source.

Regarding A(2'p5'A)3, in test [1], the “activation of 2-5A-dependent RNase (in words)” value (“activation … (in words)” below) is “enhanced activity”.

With A(2'p5'A)4, the “activation … (in words)” value in test [1] was “enhanced activity”.

p3 (A2'p)2 A: in test [2], the “competition with binding of the 2-5A probe” value (shortened to “competition with binding”) is given as “completely prevents probe binding” and the “concentration of competitor that prevents 2-5A probe binding” value is “about 20 nM”. In addition, the “competition with binding” value in test [3] is given as “effectively competes”. Besides, in test [1], the “concentration giving maximal activation of 2-5A-dependent RNase” value (from here on “concentration giving maximal activation”) turned out to be 1 nM. For the same molecule, the “RNA (poly(rU)) degraded” value in test [4] came to 93%.

Turning to pA(2'p5'A)3, the “concentration giving maximal activation” value in test [1] is on record as 1 nM.

For the molecule `[Zn+2]` [zinc], the “effect on 2-5A-dependent RNase activity” value in test [5] is “inhibitory”. Moreover, the “effect on 2-5A-binding activity” value in test [6] was “enhanced”.

On to pppA(2'p5'A)3, for which the “concentration giving maximal activation” value in test [1] is recorded as 1 nM.

Regarding (A2'p)2 A, the “fold higher concentration than trimer 2-5A required to prevent probe binding” value in test [2] (both proteins) turned out to be 500 fold. Besides, the “competition with binding” value in test [2] is “fails to interfere”; in test [3], “not prevented”. Besides, in test [2], the “concentration of competitor that prevents 2-5A probe binding” value was 10 µM. For the same molecule, the “fold reduced activity as activator relative to 2-5A (5'-triphosphorylated trimer)” value in test [1] is given as “more than 100 fold”.

Regarding `[Ca+2]` [calcium], the “effect on 2-5A-dependent RNase activity” value in test [5] is “no effect; also recorded: did not enhance ribonuclease activity”. Also, the “effect on 2-5A-binding activity” value in test [6] was “enhanced”.

Regarding `[Mn+2]` [manganese], the “effect on 2-5A-dependent RNase activity” value in test [5] is listed as “greatly stimulated”. In addition, in test [6], the “effect on 2-5A-binding activity” value is on record as “greatly stimulated”.

`[Mg+2]` [magnesium]: in test [5], the “effect on 2-5A-dependent RNase activity” value is recorded as “greatly stimulated”. The “effect on 2-5A-binding activity” value in test [6] is “greatly stimulated”.

Turning to p3 I2'pA2'pA, the “concentration of competitor that prevents 2-5A probe binding” value in test [2] is recorded as “about 1.0 μM”. In addition, in test [1], the “activation … (in words)” value is listed as “more than ten-fold less effective” and the “fold reduced activity as activator relative to 2-5A (5'-triphosphorylated trimer)” value is reported as 10 fold.

B1: clone ZB13: murine 2-5A-dependent RNase deletion, amino acids 1 to 294 (protein, UniProt Q05921 1-294, looked up, fragment)
chain: METPDYNTPQGGTPSAGSQRTVVEDDSSLIKAVQKGDVVRVQQLLEKGADANACEDTWGWTPLHNAVQAGRVDIVNLLLSHGADPHRRKKNGATPFIIAGIQGDVKLLEILLSCGADVNECDENGFTAFMEAAERGNAEALRFLFAKGANVNLRRQTTKDKRRLKQGGATALMSAAEKGHLEVLRILLNDMKAEVDARDNMGRNALIRTLLNWDCENVEEITSILIQHGADVNVRGERGKTPLIAAVERKHTGLVQMLLSREGINIDARDNEGKTALLIAVDKQLKEIVQLLLE
Consider B1, for which, in test [7], the “2-5A binding activity, % of the activity of clone ZB1” value is listed as “about 38.3%”.

B2: clone ZB15: murine 2-5A-dependent RNase deletion, amino acids 1 to 218, both P-loop motifs deleted (protein, UniProt Q05921 1-218, looked up, fragment)
chain: METPDYNTPQGGTPSAGSQRTVVEDDSSLIKAVQKGDVVRVQQLLEKGADANACEDTWGWTPLHNAVQAGRVDIVNLLLSHGADPHRRKKNGATPFIIAGIQGDVKLLEILLSCGADVNECDENGFTAFMEAAERGNAEALRFLFAKGANVNLRRQTTKDKRRLKQGGATALMSAAEKGHLEVLRILLNDMKAEVDARDNMGRNALIRTLLNWDCENV
As for B2, in test [7], the “2-5A binding activity, % of the activity of clone ZB1” value is “completely lacking”.

B3: clone ZB11: murine 2-5A-dependent RNase deletion, amino acid residues 1 to 342 (protein, UniProt Q05921 1-342, looked up, fragment)
chain: METPDYNTPQGGTPSAGSQRTVVEDDSSLIKAVQKGDVVRVQQLLEKGADANACEDTWGWTPLHNAVQAGRVDIVNLLLSHGADPHRRKKNGATPFIIAGIQGDVKLLEILLSCGADVNECDENGFTAFMEAAERGNAEALRFLFAKGANVNLRRQTTKDKRRLKQGGATALMSAAEKGHLEVLRILLNDMKAEVDARDNMGRNALIRTLLNWDCENVEEITSILIQHGADVNVRGERGKTPLIAAVERKHTGLVQMLLSREGINIDARDNEGKTALLIAVDKQLKEIVQLLLEKGADKCDDLVWIARRNHDYHLVKLLLPYVANPDTDPPAGDWSPHSSRW
Consider B3, for which, in test [7], the “loss of 2-5A binding activity as compared to clone ZB1” value is given as “about 26%”.
